Read-outs that look alike come from different tables or passages of the source.
Biological target: T1, NUAK1 (ARK5) (Homo sapiens, UniProt O60285)
T1 sequence (O60285 1-661): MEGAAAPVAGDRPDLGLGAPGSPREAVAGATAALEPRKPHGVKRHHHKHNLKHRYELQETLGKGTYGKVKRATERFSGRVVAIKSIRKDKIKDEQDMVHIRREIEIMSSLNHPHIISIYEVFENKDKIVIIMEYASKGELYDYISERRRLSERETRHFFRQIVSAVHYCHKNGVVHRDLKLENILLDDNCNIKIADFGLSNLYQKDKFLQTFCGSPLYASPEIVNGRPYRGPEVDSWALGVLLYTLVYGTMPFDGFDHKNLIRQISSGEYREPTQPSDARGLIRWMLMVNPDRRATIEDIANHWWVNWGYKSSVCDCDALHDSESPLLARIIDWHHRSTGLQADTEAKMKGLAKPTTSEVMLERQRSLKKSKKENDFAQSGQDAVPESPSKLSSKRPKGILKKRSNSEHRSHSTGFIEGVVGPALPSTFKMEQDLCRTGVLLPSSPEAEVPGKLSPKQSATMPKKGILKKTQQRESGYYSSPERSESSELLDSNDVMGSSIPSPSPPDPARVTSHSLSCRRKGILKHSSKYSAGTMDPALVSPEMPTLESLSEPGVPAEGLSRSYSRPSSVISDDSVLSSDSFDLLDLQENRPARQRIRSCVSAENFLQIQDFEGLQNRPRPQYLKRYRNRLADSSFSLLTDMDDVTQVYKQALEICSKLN
Test: SelectScreen Adapta
Type: biochemical
Method: 133 protein kinases and 7 lipid kinases were counterscreened, with 1938 used at 1 μM, using the Adapta, Lantha and Z-LYTE assays (SelectScreen Kinase Profiling Service; Thermofisher – experimental details of these assays can be found here: https://www.thermofisher.com/uk/en/home/industrial/pharma-biopharma/drug-discovery-development/target-and-lead-identification-and-validation/kinasebiology/kinase-activity-assays.html. The tree represention in KinMap[59] generated courtesy of Cell Signaling Technology, Inc. (www.cellsignal.com). mTORC1 (mTOR/RAPTOR/LST8) protein complex and ATM kinase and substrates were produced as previously described[57],[60]. Screening of 1938 was conducted using SuperSep Phos-Tag 50 μmol/l 100 x 100 x 6.6 mm 17-well (192-18001/199-18011) gels. For ATM assays, 100 nM ATM was incubated for 30 min at 30°C with 5 μM GST-p53 and 1 mM ATP, in the absence or presence of 200 μM 1938 in ATM Kinase Buffer (50 mM HEPES pH 7.5, 100 mM NaCl, 10% glycerol, 2 mM […], 5 mM MgCl2). As a positive control for ATM activation, the same reaction was carried out with 100 nM ATM/5 μM GST-p53/1 mM ATP in the presence of 100 nM Mre11-Rad50-Nbs1 (MRN) complex, a known activator of ATM[61]. For mTORC1 assays, 50 nM mTORC1 complex (mTOR/LST8/RAPTOR) was incubated for 3 h at 30°C with 15 μM 4E-BP1, 10 mM MgCl2 and 250 μM ATP, in the absence or presence of 200 μM 1938. As a ‘positive’ control, a higher concentration (150 nM) of mTORC1 complex (mTOR/LST8/RAPTOR) was incubated for 3 h at 30°C with 15 μM 4E-BP1, 10 mM MgCl2 and 250 μM ATP. Kinase reactions were quenched by addition of SDS-PAGE Loading Buffer (as per manufacturer’s instructions) and freezing at -20°C before being run on the Phos-tag gels at 150 V for 90 min. Gels were then stained using InstantBlue™ Coomassie, and quantified using BioRad Image Lab Software. Kinase assays were carried out in triplicate.

**Q.** Which inhibition at 1 µM (read-out: % Inhibition Point 1) does the source give for `CCN1CCN(c2ccc(Nc3cc(Nc4cccc5c4N(C(C)=O)CC5)ccn3)cc2)CC1` [Compound 1938] here?
**A.** Its inhibition at 1 µM is 45%.

**Q.** And the inhibition at 1 µM (read-out: % Inhibition Point 2)?
**A.** Its inhibition at 1 µM is 39%.

**Q.** And the inhibition at 1 µM (read-out: % Inhibition mean)?
**A.** Its inhibition at 1 µM is 42%.

From publication PMC7614683, “A small molecule PI3Kα activator for cardioprotection and neuroregeneration” (Nature, 2023)
